Assay results as given in US20090012163A1, “Compositions containing Mg/Zn/F-CaP plus inhibitors of pro-inflammatory cytokines (alpha ketoalkanoic acid compound) for osteoporosis prevention, therapy and treatment of bone diseases” (priority 2007, published 2009).

Tested on: TNFa release from stimulated peripheral blood monocytes (PBMCs)
Test: Inhibition by ethyl pyruvate of TNFa release from LPS-stimulated PBMCs (ELISA)
Assay type: cell-based
Conditions: for TNFa release, LPS (5 ug/ml) / TNFa release, LPS (10 ug/ml): ELISA; for inhibition at 5000 µM / inhibition at 10000 µM / inhibition at 25000 µM / inhibition at 50000 µM: PBMC
Protocol: The Effect of Alpha-Ketoalkanoic Acid on TNFa Release from Stimulated Peripheral Blood Monocytes (PBMCS)
The cells were cultured in RPMI 1640 supplemented with 1% serum albumin for approximately 12 hours before treating with LPS (Lipopolysaccharide from E. Coli) at increasing concentrations to induce TNFa release. […] The effects of ethyl pyruvate (EP) on PBMC=s macrophages cultures with 5-10 micrograms of LPS was used to stimulate relase of TNFa.
Inhibition by Ethyl Pyruvate of TNFa Release (Measured via ELISA Assay)

SMILES: CCOC(=O)C(C)=O [EP, ethyl pyruvate]
- TNFa release, LPS (5 ug/ml) (EP 5 mM, LPS 5 ug/ml): 450 arbitrary fluorescence units
- TNFa release, LPS (10 ug/ml) (EP 5 mM, LPS 10 ug/ml): 480 arbitrary fluorescence units
- TNFa release, LPS (5 ug/ml) (EP 10 mM, LPS 5 ug/ml): 275 arbitrary fluorescence units
- TNFa release, LPS (10 ug/ml) (EP 10 mM, LPS 10 ug/ml): 310 arbitrary fluorescence units
- TNFa release, LPS (5 ug/ml) (EP 25 mM, LPS 5 ug/ml): 201 arbitrary fluorescence units
- TNFa release, LPS (10 ug/ml) (EP 25 mM, LPS 10 ug/ml): 190 arbitrary fluorescence units
- TNFa release, LPS (5 ug/ml) (EP 50 mM, LPS 5 ug/ml): 200 arbitrary fluorescence units
- TNFa release, LPS (10 ug/ml) (EP 50 mM, LPS 10 ug/ml): 180 arbitrary fluorescence units
- Inhibition of TNFa release (in words) (LPS & EP incubated in the cultures, different concentrations): effective inhibitor of TNFa release
- inhibition at 5000 µM (EP 5 mM, LPS 5 ug/ml): 12%
- inhibition at 5000 µM (EP 5 mM, LPS 10 ug/ml): 6%
- inhibition at 10000 µM (EP 10 mM, LPS 5 ug/ml): 47%
- inhibition at 10000 µM (EP 10 mM, LPS 10 ug/ml): 59%
- inhibition at 25000 µM (EP 25 mM, LPS 5 ug/ml): 51%
- inhibition at 25000 µM (EP 25 mM, LPS 10 ug/ml): 75%
- inhibition at 50000 µM (EP 50 mM, LPS 5 ug/ml): 51%
- inhibition at 50000 µM (EP 50 mM, LPS 10 ug/ml): 76%
